Source: patent US20020198189A1, “New use” (priority 2000, published 2002)

For `CCCC1c2nc[nH]c2CCN1C(=O)OCc1ccccc1.O=C(O)C(F)(F)F` (stereo not shown), the melting point was 166 to 167 °C.
